Molecular target: T1, full length Aurora-A (AA 1-403) (Homo sapiens, UniProt O14965)
T1 sequence (O14965 1-403): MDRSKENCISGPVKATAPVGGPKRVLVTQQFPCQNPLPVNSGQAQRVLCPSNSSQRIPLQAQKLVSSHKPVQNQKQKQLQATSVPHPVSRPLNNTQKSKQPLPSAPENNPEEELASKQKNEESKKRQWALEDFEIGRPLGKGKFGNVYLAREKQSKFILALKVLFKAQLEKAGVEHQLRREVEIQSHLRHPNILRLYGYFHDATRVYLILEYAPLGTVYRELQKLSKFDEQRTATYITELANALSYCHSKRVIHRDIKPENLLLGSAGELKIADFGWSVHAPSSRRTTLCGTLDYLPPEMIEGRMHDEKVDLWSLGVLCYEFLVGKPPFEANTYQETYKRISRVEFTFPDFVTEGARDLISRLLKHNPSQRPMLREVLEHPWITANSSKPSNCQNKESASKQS
Assay: AuroraA Inhibition Assay (coupled enzyme system)
Assay type: biochemical
Details: standard coupled enzyme system, 200 μM ATP, 800 μM peptide (LRRASLG), 35 nM Aurora-A, 30° C.
Experimental: Compounds were screened for their ability to inhibit full length Aurora-A (AA 1-403) activity using a standard coupled enzyme system (Fox et al., Protein Sci., 7, pp. 2249 (1998)). Reactions were carried out in a solution containing 100 mM HEPES (pH 7.5), 10 mM MgCl2, 25 mM NaCl, 300 μM NADH, 1 mM DTT and 3% DMSO. Final substrate concentrations in the assay were 200 μM ATP (Sigma Chemicals, St Louis, Mo.) and 800 μM peptide (LRRASLG, American Peptide, Sunnyvale, Calif.). Reactions were carried out at 30° C. and 35 nM Aurora-A. Final concentrations of the components of the coupled enzyme system were 2.5 mM phosphoenolpyruvate, 200 μM NADH, 60 μg/ml pyruvate kinase and 20 μg/ml lactate dehydrogenase.
An assay stock buffer solution was prepared containing all of the reagents listed above with the exception of ATP and the test compound of interest. The assay stock buffer solution (60 μl) was incubated in a 96 well plate with 2 μl of the test compound of interest at final concentrations spanning 0.002 μM to 30 μM at 30° C. for 10 min. […] Rates of reaction were obtained using a Molecular Devices Spectramax plate reader (Sunnyvale, Calif.) over 10 min at 30° C. The Ki values were determined from the rate data as a function of inhibitor concentration using computerized nonlinear regression (Prism 3.0, Graphpad Software, San Diego, Calif.).

Row | Ki [nM] | SMILES
1 | < 200 | C[C@H](Nc1nc(-c2c[nH]c3ncc(Cl)nc23)ncc1F)c1ccc(F)cc1 [Compound I-28]
2 | < 200 | Clc1cnc2[nH]cc(-c3cccc(Br)c3)c2n1 [Compound I-1, 7-(3-Bromo-phenyl)-2-chloro-5H-pyrrolo[2,3-b]pyrazine]
